Like-named read-outs stand apart in the source and are kept apart here.
Key:
Her-2/neu mRNA = experiment: Semiquantitative RT-PCR of Her-2/neu transcripts; type: cell-based, human
[1] = test system: Mutant Her-2/neu promoter; experiment: Luciferase reporter driven by Her-2/neu promoter with mutated PEA3 binding site; type: cell-based, human; conditions: for Luciferase activity relative to vehicle-treated wild-type promoter cells: mutant promoter, GLA 10 μg/mL for 24 hours
Description: (§1) FIG. 11. Luciferase activity in transiently transfected cells. Luciferase activity was assayed in cells that were transiently transfected with a pGL2-Luc construct containing a luciferase reporter gene under the control of a Her-2/neu promoter fragment containing a wild-type (top panel, left) or mutant (top panel, right) PEA3 binding site as described herein. The magnitude of activation in Her-2/neu promoter-luciferase-transfected cells was determined after normalization of the luciferase activity obtained in cells co-transfected with equivalent amounts of the empty pGL2-Luciferase vector lacking the Her-2/neu promoter (-luciferase) and the internal control plasmid pRL-CMV. This control value was used to calculate the relative change in the transcriptional activities of Her-2/neu-promoter-luciferase-transfected cells in response to treatments after normalization to pRL-CMV. The activity of the wild-type promoter in untreated control cells was defined as 100%. […] One-factor ANOVA was used to analyzed differences in the percentages of luciferase activity between the various treatment groups.
(§2) The luciferase activities reported in Table 3 were assayed in cells that were transiently transfected with a pGL2-luciferase (Promega Inc., Madison, Wis.) construct containing a luciferase reporter gene under the control of a Her-2/neu promoter fragment containing a wild-type or mutant PEA3 binding site, as previously described by Xing et al. (36), incorporated herein by reference. Cells were transfected using FuGENE 6 transfection reagent (Roche Biochemicals, Indianapolis, Ind.) as directed by the manufacturer and were treated with vehicle (ethanol; EtOH) or γ-linolenic acid (10 μg/mL for 24 hours). Luciferase activity from cell extracts was detected with a Luciferase Assay System (Promega Inc.).
To examine whether the increased PEA3 levels might mediate the inhibition of Her-2/neu transcription in GLA-treated cells, the effect of GLA on transcription from a Her-2/neu promoter bearing a mutated PEA3 binding sequence, at −33 to −28, that is known to abolish PEA3 binding (36, incorporated herein by reference) was investigated. For this analysis we used the same luciferase reporter gene construct described above but containing the HER-2/neu promoter mutation at the PEA3 binding site (5′-GAG GAA-3′ at −33 to −28 changed to 5′-GAG CTC-3′).
(§3) To conduct Her-2/neu promoter activity assays, cells were initially transfected using FuGENE 6 transfection reagent (Roche Biochemicals, Indianapolis, Ind.) as directed by the manufacturer. Overnight-serum starved cancer cells seeded into 24-well plates (˜5×10^4 cells/well) were transfected in low-serum (0.1% FBS) media with 1.5 μg/well of the pGL2-luciferase (Promega, Madison, Wis.) construct containing a luciferase reporter gene driven by either an intact (Her-2/neu wild-type PEA3-binding site-luciferase) or by a mutated (Her-2/neu mutated PEA3-binding site-luciferase) Her-2/neu promoter fragment along with […] of the internal control plasmid pRL-CMV, which was used to correct for transfection efficiency. […] Approximately 24 hours after treatments, luciferase activities from cell extracts were detected with a luciferase Assay System following manufacturer's instructions (Promega, Madison, Wis., USA) using a Victor^2™ Multilabel Counter (Perkin-Elmer Life Sciences).

SK-Br3 and BT-474 cells = experiment: Soft-agar colony-formation assay; type: cell-based, human
Lipogenic Cells = experiment: Effect of fatty acids, lipogenic cells (Table 2); type: cell-based
BT-474 cells = experiment: MTT cell viability / isobologram analysis, BT-474; type: cell-based, human
Description: FIG. 10. […] Cells in exponential growth were harvested, seeded at a concentration of ˜5×10^3 cells/200 μl/well into 96-well plates and allowed to attach overnight. […] Agents were studied in combination concurrently, and they were not renewed during the entire period of cell exposure. After treatment, the medium was removed and replaced by fresh drug-free medium (100 μl/well), and MTT (5 mg/ml in phosphate-buffered saline [PBS]) was added to each well at a 1/10 volume. After 2-3 hours at 37° C., the supernatants were removed, 100 μl of dimethylsulfoxide was added to each well, and the plates were agitated. Absorbances were measured at 570 nm using a multiwell plate reader (Model Anthos Labtec 2010 1.7 reader). The cell viability effects from exposure of cells to each agent alone and to their combination were analyzed by generating concentration-effect curves as a plot of the fraction of unaffected (surviving) cells versus drug concentration. Dose-response curves were plotted as percentages of the control cell absorbances, which were obtained from control wells treated with appropriate concentrations of vehicles that were processed simultaneously. For each treatment, cell viability was evaluated as a percentage using the following equation: (A570 of treated sample/A570 of untreated sample)×100. […] All statistical tests were two-sided. […]

[2] = test system: Wild-type Her-2/neu promoter; experiment: Luciferase reporter driven by wild-type Her-2/neu promoter, transient transfection; type: cell-based, human; conditions: for inhibition at 20 µM: Homo sapiens, OA 20 μM, 24 hours, read-out: reduction (inhibition) of Her-2/neu gene promoter activity; for Luciferase activity relative to vehicle-treated wild-type promoter cells: GLA 10 μg/mL for 24 hours
Description: as §1
as §2, with “Cells were transfected using FuGENE 6 transfection reagent (Roche Biochemicals, Indianapolis, Ind.) as directed by the manufacturer and were treated with vehicle (ethanol; EtOH) or γ-linolenic acid (10 μg/mL for 24 hours).” left out
as §3

AP-2 = AP-2 expression levels; type: cell-based, human
Her-2/neu protein = experiment: Immunoblot analysis of Her-2/neu protein; type: cell-based, human

CCCCCCCCC=CCCCCCCCC(=O)O [OA, 9-octadecenoic acid]
expression levels of Her-2/neu transcripts (RT-PCR) (Her-2/neu mRNA; OA-treated SK-Br3 cells): significant reduction | regulation of luciferase reporter driven by promoter with mutated PEA3 site ([1]; OA-supplemented SK-Br3, SK-OV3 and NCI-N87 cells): not subject to negative regulation | anchorage-independent colony formation in soft agar (SK-Br3 and BT-474 cells; SK-Br3 and BT-474, OA, trastuzumab or co-exposure): slightly decreased | Effect of Fatty Acids: Lipogenic Cells (Lipogenic Cells): No effect | sensitization factor (IC50 without OA / IC50 with OA) (BT-474 cells; 10 mM OA, sensitization to trastuzumab): 40 fold | inhibition at 20 µM ([2]; NCI-N87, 24 h, NCI-N87): 55% | inhibition at 20 µM ([2]; SK-BR-3, 24 h, SK-Br3): ≤ 56% | inhibition at 20 µM ([2]; SK-OV-3, 24 h, SK-OV3): ≤ 75% | reduction of Her-2/neu gene promoter activity ([2]; MCF-7/Her2-18 transfectants, OA supplementation): up to 22% | reduction of wild-type Her-2/neu promoter luciferase reporter activity ([2]; MCF-7/neo cells, OA treatment): up to 12% | reduction of Her-2/neu promoter activity ([2]; MCF-7 breast cancer cells (physiological Her-2/neu levels), OA): < 20% | AP-2 expression levels (AP-2; Her-2/neu-overexpressing cancer cells, OA supplementation): failed to modulate | Her-2/neu protein levels (Her-2/neu protein; MCF-7/Her2-18 transfectants (SV40 promoter), OA treatment): failed to decrease | Her-2/neu protein levels (Her-2/neu protein; MCF-7/neo cells, OA supplementation): not significantly affected | Her-2/neu protein expression (Her-2/neu protein; SK-Br3, SK-OV3 and NCI-N87, OA 20 μM, 48 hours): down-regulation

CCCCCC=CCC=CCC=CCCCCC(=O)O [GLA, 6,9,12-octadecatrienoic acid]
transcription of the Her-2/neu gene (RT-PCR) (Her-2/neu mRNA; BT-474 and SK-Br3, GLA 5, 10, or 20 μg/ml for 48 hours): Strong, dose-dependent decreases | Luciferase activity relative to vehicle-treated wild-type promoter cells ([1]; BT-474): 12% (95% CI = 9-15%) | Luciferase activity relative to vehicle-treated wild-type promoter cells ([1]; MDA-MB-231): 61% (95% CI = 59-63%) | Luciferase activity relative to vehicle-treated wild-type promoter cells ([1]; MDA-MB-453): 11% (95% CI = 3-19%) | Luciferase activity relative to vehicle-treated wild-type promoter cells ([1]; NCI-N87): 19% (95% CI = 12-26%) | Luciferase activity relative to vehicle-treated wild-type promoter cells ([1]; SK-Br3): 21% (95% CI = 18-24%) | Luciferase activity relative to vehicle-treated wild-type promoter cells ([1]; SK-OV3): 14% (95% CI = 6-22%) | anchorage-independent growth in soft agar, effect of GLA cotreatment (SK-Br3 and BT-474 cells; BT-474 and SK-Br3, GLA with suboptimal doses of trastuzumab): enhanced the growth-inhibitory effects | Effect of Fatty Acids: Lipogenic Cells (Lipogenic Cells): No effect | increase in sensitivity to trastuzumab (BT-474 cells; concurrent 10 μg/ml GLA): approximately 30 fold | Luciferase activity relative to vehicle-treated wild-type promoter cells ([2]; BT-474): 35% (95% CI = 33-37%) | Luciferase activity relative to vehicle-treated wild-type promoter cells ([2]; MDA-MB-231): 80% (95% CI = 75-85%) | Luciferase activity relative to vehicle-treated wild-type promoter cells ([2]; MDA-MB-453): 26% (95% CI = 25-27%) | Luciferase activity relative to vehicle-treated wild-type promoter cells ([2]; NCI-N87): 38% (95% CI = 34-42%) | Luciferase activity relative to vehicle-treated wild-type promoter cells ([2]; SK-Br3): 54% (95% CI = 51-57%) | Luciferase activity relative to vehicle-treated wild-type promoter cells ([2]; SK-OV3): 21% (95% CI = 16-26%) | AP-2 expression (AP-2; GLA-treated cells): does not appear to regulate | Her-2/neu protein levels (Her-2/neu protein; BT-474 and SK-Br3, GLA 10 μg/mL for 48 hours): substantial reduction | Her-2/neu protein levels (Her-2/neu protein; MDA-MB-231 (low Her-2/neu), GLA exposure): did not affect | Her-2/neu protein levels (Her-2/neu protein; MDA-MB-453, SK-OV3 and NCI-N87, GLA 10 μg/mL for 48 hours): markedly decreased
